# In US9499537B2, “Antiviral pyrrolopyridine derivatives and method for preparing the same” (KOREA RESEARCH INSTITUTE OF CHEMICAL TECHNOLOGY, priority 2011, dated 2016):
# Test system: MT-4 cells
# Experiment: Cytotoxicity test in MT-4 cells (MTT method)
# Assay type: cell-based
# Details: human
# Protocol: In order to look into the HIV-1 inhibition effects of the compound of the present invention, an in vitro test for HIV-1 inhibition effects was carried out as follows according to a known method (H. Tanaka et al., J. Med. Chem., 1991, 34, 349). MT-4 cells were used as host cells, and the degree of the compound of the present invention inhibiting the cytotoxicity of the virus-infected MT-4 cells was investigated.
# First, MT-4 cells were diffused at a concentration of 1×10^4 cell/well to a culture medium, and HIV-1 was inoculated so that the concentration was 500 TCI50 (concentration at which 50% of the cell is infected)/well. Immediately after the inoculation, the cell dispersion was transferred in 100 μL each to a flat microtiter plate in which the sample of the compound of the present invention was placed. The sample was incubated for approximately for 4 to 5 days at […], and the virus suppression effect was determined using an MTT method. In addition, the cytotoxicity was also determined by measuring the survivability of the experimentally virus-infected cells using an MTT method. As a comparative compound, azidothymidine (AZT) and raltegravir were used.
row,SMILES,CC60 (μM) ** : concentration at 50% cell damage with respect to MT-4 cells [µM]
1,"Cc1nc2c(c(C)c(C)n2C)c(-c2ccc(Cl)cc2)c1C(OC(C)(C)C)C(=O)O (stereo not shown) [Example 1, 2-Tert-butoxy-2-(4-(4-chlorophenyl)-1,2,3,6-tetramethyl-1H-pyrrolo[2,3-b]pyridin-5-yl)acetic acid]",25
2,"CCn1c(C)c(C)c2c(-c3ccc(Cl)cc3)c(C(OC(C)(C)C)C(=O)O)c(C)nc21 (stereo not shown) [Example 2, 2-Tert-butoxy-2-(4-(4-chlorophenyl)-1-ethyl-2,3,6-trimethyl-1H-pyrrolo[2,3-b]pyridin-5-yl)acetic acid]",>233
3,"C=CCn1c(C)c(C)c2c(-c3ccc(Cl)cc3)c(C(OC(C)(C)C)C(=O)O)c(C)nc21 (stereo not shown) [Example 3, 2-(1-Allyl-4-(4-chlorophenyl)-2,3,6-trimethyl-1H-pyrrolo[2,3-b]pyridin-5-yl)-2-tert-butoxyacetic acid]",26.19
4,"Cc1nc2c(c(C)c(C)n2CC2CC2)c(-c2ccc(Cl)cc2)c1C(OC(C)(C)C)C(=O)O (stereo not shown) [Example 4, 2-Tert-butoxy-2-(4-(4-chlorophenyl)-1-(cyclopropylmethyl)-2,3,6-trimethyl-1H-pyrrolo[2,3-b]pyridin-5-yl)acetic acid]",18
5,"Cc1nc2c(c(C)c(C)n2Cc2ccccc2)c(-c2ccc(Cl)cc2)c1C(OC(C)(C)C)C(=O)O (stereo not shown) [Example 5, 2-(1-Benzyl-4-(4-chlorophenyl)-2,3,6-trimethyl-1H-pyrrolo[2,3-b]pyridin-5-yl)-2-tert-butoxyacetic acid]",17
6,"Cc1nc2c(c(C)c(C)n2Cc2cccc(Cl)c2)c(-c2ccc(Cl)cc2)c1C(OC(C)(C)C)C(=O)O (stereo not shown) [Example 6, 2-Tert-butoxy-2-(1-(3-chlorobenzyl)-4-(4-chlorophenyl)-2,3,6-trimethyl-1H-pyrrolo[2,3-b]pyridin-5-yl)acetic acid]",9.74
7,"Cc1nc2c(c(C)c(C)n2Cc2ccc(F)cc2)c(-c2ccc(Cl)cc2)c1C(OC(C)(C)C)C(=O)O (stereo not shown) [Example 8, 2-Tert-butoxy-2-(4-(4-chlorophenyl)-1-(4-fluorobenzyl)-2,3,6-trimethyl-1H-pyrrolo[2,3-b]pyridin-5-yl)acetic acid]",12.8
8,"COc1ccc(Cn2c(C)c(C)c3c(-c4ccc(Cl)cc4)c(C(OC(C)(C)C)C(=O)O)c(C)nc32)cc1 (stereo not shown) [Example 9, 2-Tert-butoxy-2-(4-(4-chlorophenyl)-1-(4-methoxybenzyl)-2,3,6-trimethyl-1H-pyrrolo[2,3-b]pyridin-5-yl)acetic acid]",18.04
9,"Cc1nc2c(c(C)c(C)n2Cc2ccncc2)c(-c2ccc(Cl)cc2)c1C(OC(C)(C)C)C(=O)O (stereo not shown) [Example 10, 2-Tert-butoxy-2-(4-(4-chlorophenyl)-2,3,6-trimethyl-1-(pyridin-4-ylmethyl)-1H-pyrrolo[2,3-b]pyridin-5-yl)acetic acid]",>203
10,"Cc1nc2c(c(C)c(C)n2Cc2ccccc2C#N)c(-c2ccc(Cl)cc2)c1C(OC(C)(C)C)C(=O)O (stereo not shown) [Example 11, 2-Tert-butoxy-2-(4-(4-chlorophenyl)-1-(2-cyanobenzyl)-2,3,6-trimethyl-1H-pyrrolo[2,3-b]pyridin-5-yl)acetic acid]",15.19
11,"Cc1nc2c(c(C)c(C)n2Cc2cccnc2)c(-c2ccc(Cl)cc2)c1C(OC(C)(C)C)C(=O)O (stereo not shown) [Example 12, 2-Tert-butoxy-2-(4-(4-chlorophenyl)-2,3,6-trimethyl-1-(pyridin-3-ylmethyl)-1H-pyrrolo[2,3-b]pyridin-5-yl)acetic acid]",56.14
12,"Cc1nc2c(c(C)c(C)n2Cc2ccccn2)c(-c2ccc(Cl)cc2)c1C(OC(C)(C)C)C(=O)O (stereo not shown) [Example 13, 2-Tert-butoxy-2-(4-(4-chlorophenyl)-2,3,6-trimethyl-1-(pyridin-2-ylmethyl)-1H-pyrrolo[2,3-b]pyridin-5-yl)acetic acid]",85.91
13,"Cc1cccc(Cn2c(C)c(C)c3c(-c4ccc(Cl)cc4)c(C(OC(C)(C)C)C(=O)O)c(C)nc32)n1 (stereo not shown) [Example 14, 2-Tert-butoxy-2-(4-(4-chlorophenyl)-2,3,6-trimethyl-1-((6-methylpyridin-2-yl)methyl)-1H-pyrrolo[2,3-b]pyridin-5-yl)acetic acid]",36.6
14,"CCCn1c(C)c(C)c2c(-c3ccc(Cl)cc3)c(C(OC(C)(C)C)C(=O)O)c(C)nc21 (stereo not shown) [Example 15, 2-Tert-butoxy-2-(4-(4-chlorophenyl)-2,3,6-trimethyl-1-propyl-1H-pyrrolo[2,3-b]pyridin-5-yl)acetic acid]",20.7
15,"CCCCn1c(C)c(C)c2c(-c3ccc(Cl)cc3)c(C(OC(C)(C)C)C(=O)O)c(C)nc21 (stereo not shown) [Example 16, 2-Tert-butoxy-2-(1-butyl-4-(4-chlorophenyl)-2,3,6-trimethyl-1H-pyrrolo[2,3-b]pyridin-5-yl)acetic acid]",>219
16,"Cc1nc2c(c(C)c(C)n2CC(C)C)c(-c2ccc(Cl)cc2)c1C(OC(C)(C)C)C(=O)O (stereo not shown) [Example 17, 2-Tert-butoxy-2-(4-(4-chlorophenyl)-1-isobutyl-2,3,6-trimethyl-1H-pyrrolo[2,3-b]pyridin-5-yl)acetic acid]",17.57
17,"Cc1nc2c(c(C)c(C)n2CCC(C)C)c(-c2ccc(Cl)cc2)c1C(OC(C)(C)C)C(=O)O (stereo not shown) [Example 18, 2-Tert-butoxy-2-(4-(4-chlorophenyl)-1-isopentyl-2,3,6-trimethyl-1H-pyrrolo[2,3-b]pyridin-5-yl)acetic acid]",17.32
18,"Cc1nc2c(c(C)c(C)n2CN2C(=O)c3ccccc3C2=O)c(-c2ccc(Cl)cc2)c1C(OC(C)(C)C)C(=O)O (stereo not shown) [Example 19, 2-Tert-butoxy-2-(4-(4-chlorophenyl)-1-((1,3-dioxoisoindolin-2-yl)methyl)-2,3,6-trimethyl-1H-pyrrolo[2,3-b]pyridin-5-yl)acetic acid]",>179
19,"C#CCn1c(C)c(C)c2c(-c3ccc(Cl)cc3)c(C(OC(C)(C)C)C(=O)O)c(C)nc21 (stereo not shown) [Example 20, 2-Tert-butoxy-2-(4-(4-chlorophenyl)-2,3,6-trimethyl-1-(prop-2-ynyl)-1H-pyrrolo[2,3-b]pyridin-5-yl)acetic acid]",18.77
20,"Cc1nc2c(c(C)c(C)n2C(C)C)c(-c2ccc(Cl)cc2)c1C(OC(C)(C)C)C(=O)O (stereo not shown) [Example 21, 2-Tert-butoxy-2-(4-(4-chlorophenyl)-1-isopropyl-2,3,6-trimethyl-1H-pyrrolo[2,3-b]pyridin-5-yl)acetic acid]",24.51
21,"Cc1nc2c(c(C)c(C)n2CC#N)c(-c2ccc(Cl)cc2)c1C(OC(C)(C)C)C(=O)O (stereo not shown) [Example 22, 2-Tert-butoxy-2-(4-(4-chlorophenyl)-1-cyanomethyl-2,3,6-trimethyl-1H-pyrrolo[2,3-b]pyridin-5-yl)acetic acid]",114.47
22,"Cc1nc2c(c(C)c(C)n2CCC#N)c(-c2ccc(Cl)cc2)c1C(OC(C)(C)C)C(=O)O (stereo not shown) [Example 23, 2-Tert-butoxy-2-(4-(4-chlorophenyl)-1-(2-cyanoethyl)-2,3,6-trimethyl-1H-pyrrolo[2,3-b]pyridin-5-yl)acetic acid]",25.49
23,"Cc1nc2c(c(C)c(C)n2CCO)c(-c2ccc(Cl)cc2)c1C(OC(C)(C)C)C(=O)O (stereo not shown) [Example 24, 2-Tert-butoxy-2-(4-(4-chlorophenyl)-1-(2-hydroxyethyl)-2,3,6-trimethyl-1H-pyrrolo[2,3-b]pyridin-5-yl)acetic acid]",75.04
24,"Cc1nc2[nH]c(C)c(C)c2c(-c2ccc(Cl)cc2)c1C(OC(C)(C)C)C(=O)O (stereo not shown) [Example 25, 2-Tert-butoxy-2-(4-(4-chlorophenyl)-2,3,6-trimethyl-1H-pyrrolo[2,3-b]pyridin-5-yl)acetic acid]",108
25,"Cc1nc2c(c(C)c(C)n2C)c(-c2ccc(Cl)cc2)c1[C@H](OC(C)(C)C)C(=O)O [Example 26, (S)-2-Tert-butoxy-2-(4-(4-chlorophenyl)-1,2,3,6-tetramethyl-1H-pyrrolo[2,3-b]pyridin-5-yl)acetic acid]",55.84
26,"Cc1nc2c(c(C)c(C)n2C)c(-c2ccc(Cl)cc2)c1[C@@H](OC(C)(C)C)C(=O)O [Example 27, (R)-2-tert-butoxy-2-(4-(4-chlorophenyl)-1,2,3,6-tetramethyl-1H-pyrrolo[2,3-b]pyridin-5-yl)acetic acid]",29
27,"Cc1nc2c(c(C)c(C)n2CC2CC2)c(-c2ccc(Cl)cc2)c1[C@H](OC(C)(C)C)C(=O)O [Example 28, (S)-2-Tert-butoxy-2-(4-(4-chlorophenyl)-1-(cyclopropylmethyl)-2,3,6-trimethyl-1H-pyrrolo[2,3-b]pyridin-5-yl)acetic acid]",20.4
28,"Cc1nc2c(c(C)c(C)n2CC2CC2)c(-c2ccc(Cl)cc2)c1[C@@H](OC(C)(C)C)C(=O)O [Example 29, (R)-2-tert-butoxy-2-(4-(4-chlorophenyl)-1-(cyclopropylmethyl)-2,3,6-trimethyl-1H-pyrrolo[2,3-b]pyridin-5-yl)acetic acid]",100
